Test results published in doi:10.1101/2021.09.30.462449v1 (biorxiv, 2021).

Legend:
Test in all cases: biochemical
Settings in all cases: read-out: % inhibition mean (Z'Lyte)
ABL1 = ABL1 (Homo sapiens, UniProt P00519)
FGFR4 = FGFR4 (Homo sapiens, UniProt P22455)
CDK5/p25 = CDK5/p25 (Homo sapiens, UniProt Q00535)
JAK2 JH1 JH2 V617F = JAK2 JH1 JH2 V617F (Homo sapiens, UniProt O60674, V617F)
MATK (HYL) = MATK (HYL) (Homo sapiens, UniProt P42679)
NIM1K = NIM1K (Homo sapiens, UniProt Q8IY84)
FGFR1 = FGFR1 (Homo sapiens, UniProt P11362)
MERTK (cMER) = MERTK (cMER) (Homo sapiens, UniProt Q12866)
Sequence of MERTK (cMER) (Q12866 whole entry): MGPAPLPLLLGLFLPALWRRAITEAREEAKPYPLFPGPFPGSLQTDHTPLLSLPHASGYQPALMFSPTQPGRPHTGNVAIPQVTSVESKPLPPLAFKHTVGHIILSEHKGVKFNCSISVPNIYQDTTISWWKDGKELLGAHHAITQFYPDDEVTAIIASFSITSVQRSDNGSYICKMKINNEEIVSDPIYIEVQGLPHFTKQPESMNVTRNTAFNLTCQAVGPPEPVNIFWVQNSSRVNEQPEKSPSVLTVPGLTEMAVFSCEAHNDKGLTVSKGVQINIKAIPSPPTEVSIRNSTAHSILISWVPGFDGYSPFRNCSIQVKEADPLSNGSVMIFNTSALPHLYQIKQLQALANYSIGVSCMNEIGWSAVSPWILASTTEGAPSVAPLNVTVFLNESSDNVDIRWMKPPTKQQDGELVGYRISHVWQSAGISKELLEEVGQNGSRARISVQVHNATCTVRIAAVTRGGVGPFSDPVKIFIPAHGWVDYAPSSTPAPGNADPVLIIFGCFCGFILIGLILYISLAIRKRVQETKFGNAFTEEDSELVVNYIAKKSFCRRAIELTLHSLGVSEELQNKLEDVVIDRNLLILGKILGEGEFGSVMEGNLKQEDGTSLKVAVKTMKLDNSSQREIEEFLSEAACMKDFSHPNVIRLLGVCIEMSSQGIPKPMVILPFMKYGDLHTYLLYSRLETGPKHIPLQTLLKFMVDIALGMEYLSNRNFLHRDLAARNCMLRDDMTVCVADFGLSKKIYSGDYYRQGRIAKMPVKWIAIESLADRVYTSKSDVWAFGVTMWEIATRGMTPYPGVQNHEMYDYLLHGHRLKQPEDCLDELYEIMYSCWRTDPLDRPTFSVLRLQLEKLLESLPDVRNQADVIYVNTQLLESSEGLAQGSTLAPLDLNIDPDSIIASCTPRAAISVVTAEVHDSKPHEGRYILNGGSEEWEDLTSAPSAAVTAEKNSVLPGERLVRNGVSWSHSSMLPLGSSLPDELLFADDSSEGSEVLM

AMPK A2/B1/G1 = AMPK A2/B1/G1 (Homo sapiens, UniProt P54646)
PIM3 = PIM3 (Homo sapiens, UniProt Q86V86)
TEK (TIE2) Y897S = TEK (TIE2) Y897S (Homo sapiens, UniProt Q02763, Y897S)
CSNK2A1 (CK2 alpha 1) = CSNK2A1 (CK2 alpha 1) (Homo sapiens, UniProt P68400)
Sequence of CSNK2A1 (CK2 alpha 1) (P68400 whole entry): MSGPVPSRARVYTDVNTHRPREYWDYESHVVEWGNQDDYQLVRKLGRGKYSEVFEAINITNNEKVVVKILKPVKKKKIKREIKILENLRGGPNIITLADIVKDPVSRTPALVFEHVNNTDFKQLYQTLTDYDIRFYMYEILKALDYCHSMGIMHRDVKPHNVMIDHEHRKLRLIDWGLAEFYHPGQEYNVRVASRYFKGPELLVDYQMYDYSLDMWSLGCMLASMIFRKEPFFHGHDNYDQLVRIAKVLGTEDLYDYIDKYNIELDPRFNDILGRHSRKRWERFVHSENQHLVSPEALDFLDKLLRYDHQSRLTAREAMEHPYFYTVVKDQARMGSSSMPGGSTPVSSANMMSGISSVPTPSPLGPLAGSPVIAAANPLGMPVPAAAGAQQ

PRKX = PRKX (Homo sapiens, UniProt P51817)
CAMK1G (CAMKI gamma) = CAMK1G (CAMKI gamma) (Homo sapiens, UniProt Q96NX5)
ZAP70 = ZAP70 (Homo sapiens, UniProt P43403)
CHEK1 (CHK1) = CHEK1 (CHK1) (Homo sapiens, UniProt O14757)
AKT2 (PKB beta) = AKT2 (PKB beta) (Homo sapiens, UniProt P31751)
PRKG2 (PKG2) = PRKG2 (PKG2) (Homo sapiens, UniProt Q13237)
RPS6KA6 (RSK4) = RPS6KA6 (RSK4) (Homo sapiens, UniProt Q9UK32)
PHKG1 = PHKG1 (Homo sapiens, UniProt Q16816)
SYK = SYK (Homo sapiens, UniProt P43405)
PLK3 = PLK3 (Homo sapiens, UniProt Q9H4B4)
CSNK1G3 (CK1 gamma 3) = CSNK1G3 (CK1 gamma 3) (Homo sapiens, UniProt Q9Y6M4)
YES1 = YES1 (Homo sapiens, UniProt P07947)
Sequence of YES1 (P07947 whole entry): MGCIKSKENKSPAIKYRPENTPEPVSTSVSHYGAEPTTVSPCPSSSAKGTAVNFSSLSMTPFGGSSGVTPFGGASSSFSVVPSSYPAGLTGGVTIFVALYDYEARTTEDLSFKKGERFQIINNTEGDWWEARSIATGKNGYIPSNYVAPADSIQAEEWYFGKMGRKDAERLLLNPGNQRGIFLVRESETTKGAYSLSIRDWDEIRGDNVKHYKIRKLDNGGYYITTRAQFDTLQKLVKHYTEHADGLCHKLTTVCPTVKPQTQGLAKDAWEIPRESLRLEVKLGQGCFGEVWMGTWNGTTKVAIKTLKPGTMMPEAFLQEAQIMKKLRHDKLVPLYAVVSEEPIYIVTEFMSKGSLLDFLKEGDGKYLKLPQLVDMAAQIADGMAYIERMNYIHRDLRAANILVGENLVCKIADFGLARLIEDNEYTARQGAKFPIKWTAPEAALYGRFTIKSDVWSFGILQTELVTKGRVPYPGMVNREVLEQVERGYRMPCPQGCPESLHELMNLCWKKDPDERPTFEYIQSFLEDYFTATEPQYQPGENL

ABL1 F317I = ABL1 F317I (Homo sapiens, UniProt P00519, F317I)
Sequence of ABL1 F317I (P00519 whole entry F317I): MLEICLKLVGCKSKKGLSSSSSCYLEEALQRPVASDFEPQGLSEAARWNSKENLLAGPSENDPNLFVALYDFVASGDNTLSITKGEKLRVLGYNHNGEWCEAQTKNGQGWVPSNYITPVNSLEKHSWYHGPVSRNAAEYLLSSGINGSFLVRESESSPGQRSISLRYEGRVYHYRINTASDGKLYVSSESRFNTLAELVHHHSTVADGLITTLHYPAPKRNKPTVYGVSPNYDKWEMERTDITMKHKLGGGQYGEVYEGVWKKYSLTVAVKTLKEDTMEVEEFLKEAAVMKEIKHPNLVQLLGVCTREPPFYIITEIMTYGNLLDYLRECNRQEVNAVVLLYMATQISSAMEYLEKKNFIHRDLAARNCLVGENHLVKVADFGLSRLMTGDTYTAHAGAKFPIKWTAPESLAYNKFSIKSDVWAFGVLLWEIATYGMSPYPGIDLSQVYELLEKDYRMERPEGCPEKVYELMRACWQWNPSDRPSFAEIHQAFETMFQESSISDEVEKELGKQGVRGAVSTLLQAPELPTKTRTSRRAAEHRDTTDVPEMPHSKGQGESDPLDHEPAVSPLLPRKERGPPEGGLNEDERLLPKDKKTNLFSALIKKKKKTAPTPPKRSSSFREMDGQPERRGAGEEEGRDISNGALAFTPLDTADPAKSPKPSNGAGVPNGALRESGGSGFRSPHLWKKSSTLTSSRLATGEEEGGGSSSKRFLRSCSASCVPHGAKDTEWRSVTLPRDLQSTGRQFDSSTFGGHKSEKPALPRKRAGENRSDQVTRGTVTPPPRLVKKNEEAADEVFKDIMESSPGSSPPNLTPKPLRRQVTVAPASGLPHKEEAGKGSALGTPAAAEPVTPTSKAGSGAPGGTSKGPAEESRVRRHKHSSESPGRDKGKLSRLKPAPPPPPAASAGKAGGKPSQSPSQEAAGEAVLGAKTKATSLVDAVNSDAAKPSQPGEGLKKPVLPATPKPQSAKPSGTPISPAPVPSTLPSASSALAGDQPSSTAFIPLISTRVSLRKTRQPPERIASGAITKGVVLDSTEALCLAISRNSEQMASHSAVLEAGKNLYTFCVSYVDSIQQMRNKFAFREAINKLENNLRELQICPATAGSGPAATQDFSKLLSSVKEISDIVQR

GRK4 = GRK4 (Homo sapiens, UniProt P32298)
FGFR2 N549H = FGFR2 N549H (Homo sapiens, UniProt P21802, N549H)
SNF1LK2 = SNF1LK2 (Homo sapiens, UniProt Q9H0K1)
TBK1 = TBK1 (Homo sapiens, UniProt Q9UHD2)
Sequence of TBK1 (Q9UHD2 whole entry): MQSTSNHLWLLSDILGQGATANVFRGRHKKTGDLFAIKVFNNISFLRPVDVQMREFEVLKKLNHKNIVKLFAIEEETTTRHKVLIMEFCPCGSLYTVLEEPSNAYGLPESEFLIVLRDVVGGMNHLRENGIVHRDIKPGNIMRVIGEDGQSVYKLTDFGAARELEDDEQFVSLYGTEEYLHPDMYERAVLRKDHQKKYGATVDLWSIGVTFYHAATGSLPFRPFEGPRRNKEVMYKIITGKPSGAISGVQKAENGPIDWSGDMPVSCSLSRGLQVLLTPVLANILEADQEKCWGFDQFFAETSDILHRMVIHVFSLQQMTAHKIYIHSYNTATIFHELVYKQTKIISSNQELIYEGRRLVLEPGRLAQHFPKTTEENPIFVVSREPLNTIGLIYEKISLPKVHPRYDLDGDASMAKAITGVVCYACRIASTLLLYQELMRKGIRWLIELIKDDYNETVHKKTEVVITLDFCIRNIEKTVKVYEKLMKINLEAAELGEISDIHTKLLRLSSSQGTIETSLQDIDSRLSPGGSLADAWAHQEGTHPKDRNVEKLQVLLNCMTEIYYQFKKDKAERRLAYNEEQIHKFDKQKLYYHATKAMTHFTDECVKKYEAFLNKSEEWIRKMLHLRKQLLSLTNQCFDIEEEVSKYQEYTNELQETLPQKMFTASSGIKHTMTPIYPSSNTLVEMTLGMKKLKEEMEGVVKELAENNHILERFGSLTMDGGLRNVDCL

Sequence of MATK (HYL) (P42679 whole entry): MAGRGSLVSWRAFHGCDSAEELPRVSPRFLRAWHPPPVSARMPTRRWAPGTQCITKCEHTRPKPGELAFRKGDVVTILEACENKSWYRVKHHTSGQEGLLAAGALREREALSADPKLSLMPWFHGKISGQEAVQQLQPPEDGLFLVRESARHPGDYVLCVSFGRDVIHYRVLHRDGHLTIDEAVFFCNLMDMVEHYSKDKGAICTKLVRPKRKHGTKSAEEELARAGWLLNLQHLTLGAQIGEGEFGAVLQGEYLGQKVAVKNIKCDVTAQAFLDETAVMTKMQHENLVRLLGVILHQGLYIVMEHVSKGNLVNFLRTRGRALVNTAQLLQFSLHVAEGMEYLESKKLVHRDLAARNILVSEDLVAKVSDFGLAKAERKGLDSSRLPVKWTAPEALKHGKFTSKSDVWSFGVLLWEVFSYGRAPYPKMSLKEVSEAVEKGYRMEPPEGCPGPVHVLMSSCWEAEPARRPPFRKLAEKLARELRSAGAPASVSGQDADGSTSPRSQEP
Sequence of NIM1K (Q8IY84 whole entry): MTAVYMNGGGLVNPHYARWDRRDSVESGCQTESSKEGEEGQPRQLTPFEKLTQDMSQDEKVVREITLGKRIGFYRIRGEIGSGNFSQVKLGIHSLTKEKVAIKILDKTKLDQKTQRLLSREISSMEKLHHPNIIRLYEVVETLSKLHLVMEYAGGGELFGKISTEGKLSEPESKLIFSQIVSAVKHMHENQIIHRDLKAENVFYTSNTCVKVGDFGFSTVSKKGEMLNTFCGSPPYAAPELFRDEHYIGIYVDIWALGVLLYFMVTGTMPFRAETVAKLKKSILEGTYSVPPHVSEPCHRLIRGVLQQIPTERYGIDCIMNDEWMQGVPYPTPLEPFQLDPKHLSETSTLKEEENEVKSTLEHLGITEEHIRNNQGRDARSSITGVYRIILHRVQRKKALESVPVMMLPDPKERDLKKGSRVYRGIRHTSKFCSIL
Sequence of ABL1 (P00519 whole entry): as the sequence (P00519 whole entry F317I) above, with I317F counted along it

COc1ccc2nc3cc(Cl)ccc3c(Nc3cc(CN4CCCC4)c(O)c(CN4CCCC4)c3)c2n1 [Pyronaridine, 4-[(7-Chloro-2-methoxybenzo[b][1,5]naphthyridin-10-yl)amino]-2,6-bis(1-pyrrolidinylmethyl)phenol phosphate (1:4)] was tested, and the inhibition at 1 µM (ABL1) was 2%, the inhibition at 1 µM (FGFR4) was -14% and the inhibition at 1 µM (CDK5/p25) was 0%. It also gave an inhibition at 1 µM (JAK2 JH1 JH2 V617F) of 0%, an inhibition at 1 µM (MATK (HYL)) of -2% and an inhibition at 1 µM (NIM1K) of -2%. For the same compound, the inhibition at 1 µM (FGFR1) was -5%, the inhibition at 1 µM (MERTK (cMER)) was 2% and the inhibition at 1 µM (AMPK A2/B1/G1) was 2%. It also gave an inhibition at 1 µM (PIM3) of 12%, an inhibition at 1 µM (TEK (TIE2) Y897S) of 2% and an inhibition at 1 µM (CSNK2A1 (CK2 alpha 1)) of 7%. The inhibition at 1 µM (PRKX) was 5%, the inhibition at 1 µM (CAMK1G (CAMKI gamma)) was 0% and the inhibition at 1 µM (ZAP70) was 4%. The inhibition at 1 µM (CHEK1 (CHK1)) was 8%, the inhibition at 1 µM (AKT2 (PKB beta)) was 1% and the inhibition at 1 µM (PRKG2 (PKG2)) was 1%. The inhibition at 1 µM (RPS6KA6 (RSK4)) was 4%, the inhibition at 1 µM (PHKG1) was -1% and the inhibition at 1 µM (SYK) was 1%. It also gave an inhibition at 1 µM (PLK3) of 28%, an inhibition at 1 µM (CSNK1G3 (CK1 gamma 3)) of 2% and an inhibition at 1 µM (YES1) of -6%. It also gave an inhibition at 1 µM (ABL1 F317I) of 0%, an inhibition at 1 µM (GRK4) of 25% and an inhibition at 1 µM (FGFR2 N549H) of 2%. It also gave an inhibition at 1 µM (SNF1LK2) of -5% and an inhibition at 1 µM (TBK1) of 4%.
